Laboratory results: ChEMBL document CHEMBL3396983, “Synthesis of erythrocentaurin derivatives as a new class of hepatitis B virus inhibitors” (Bioorg Med Chem Lett, 2015)

Key:
[1] = Selectivity index, ratio of CC50 for human HepG2(2.2.15) cells to IC50 for inhibition of HBV HBeAg secretion in HepG2(2.2.15) cells; type: functional
Hepatitis B virus [2] = assay: Inhibition of HBV HBsAg secretion in HepG2(2.2.15) cells after 72 hrs by ELISA method; type: functional, organism-based; details: HepG2 2.2.15, 72 h
[3] = Cytotoxicity against human HepG2(2.2.15) cells after 72 hrs by MTT assay; type: cell-based
Hepatitis B virus [4] = assay: Inhibition of HBV HBeAg secretion in HepG2(2.2.15) cells after 72 hrs by ELISA method; type: functional, organism-based; details: HepG2 2.2.15, 72 h
Hepatitis B virus [5] = assay: Inhibition of HBV DNA replication in HepG2(2.2.15) cells exposed to fresh medium supplemented with compound every other day for additional 5 days by real-time PCR-fluorescent probing method; type: functional, organism-based; details: HepG2 2.2.15, 120 h
[6] = Selectivity index, ratio of CC50 for human HepG2(2.2.15) cells to IC50 for inhibition of HBV DNA replication in HepG2(2.2.15) cells; type: functional
[7] = Selectivity index, ratio of CC50 for human HepG2(2.2.15) cells to IC50 for inhibition of HBV HBsAg secretion in HepG2(2.2.15) cells; type: functional

Row | SMILES | Ratio CC50/IC50 [1] | IC50 (Hepatitis B virus [2]) [µM] | CC50 at 72 h [3] [µM] | IC50 (Hepatitis B virus [4]) [µM] | IC50 (Hepatitis B virus [5]) [µM] | Ratio CC50/IC50 [6] | Ratio CC50/IC50 [7]
1 | O=C1OCCc2c(/C=N\O)cccc21 | >1.7 | > 4000 | > 4000 | 2330 | 360 | >11.1 | 
2 | CCOCC(=O)OCc1cccc2c1CCOC2=O |  | > 3680 | > 3680 | > 3680 | > 920 |  | 
3 | CCC(CC)C(=O)OCc1cccc2c1CCOC2=O |  | > 2590 | 1890 | > 2590 | > 650 |  | 
4 | CCCCCCCC(=O)OCc1cccc2c1CCOC2=O |  | > 3450 | > 3450 | > 3450 | > 860 |  | 
5 | O=C(OCc1cccc2c1CCOC2=O)c1cccnc1 |  | > 2700 | > 2700 | > 2700 | > 680 |  | 
6 | O=C1OCCc2c1cccc2C1OCCO1 | >1.2 | > 2580 | > 2580 | 2180 | 570 | >4.5 | 
7 | CC(=O)OCc1cccc2c1CCOC2=O |  | 1310 | > 2430 | > 2430 | > 860 |  | >1.8
8 | O=C1OCCc2c(/C=N/Nc3ccc([N+](=O)[O-])cc3[N+](=O)[O-])cccc21 | >1.2 | > 1650 | > 1650 | 1340 | > 410 |  | 
9 | O=Cc1cccc2c1CCOC2=O | 1.5 | 1300 | 1760 | 1140 | 760 | 2.3 | 1.4
10 | O=C1OCCc2c(CO)cccc21 | >2.6 | 2700 | > 3800 | 1460 | 170 | >22.4 | >1.4
11 | O=C(OCc1cccc2c1CCOC2=O)c1cc2ccccc2o1 |  | 1630 | 830 | > 2670 | 540 | 1.5 | <1
12 | O=C(OCc1cccc2c1CCOC2=O)c1cc2ccccc2[nH]1 |  | > 2050 | > 2050 | > 2050 | 77 | >26.6 | 
13 | O=C(OCc1cccc2c1CCOC2=O)c1cccc([N+](=O)[O-])c1 |  | > 2720 | > 2720 | > 2720 | > 680 |  | 
14 | O=C1OCCc2c(/C=C\c3ccccc3)cccc21 |  | > 2160 | > 2160 | > 2160 | 80 | >27 | 
15 | O=C1OCCc2c(/C=C/c3ccccc3)cccc21 |  | > 2430 | > 2430 | > 2430 | 110 | >22.1 | 
16 | O=C(OCc1cccc2c1CCOC2=O)c1cc(=O)c2ccccc2o1 | 1.4 | 2300 | 2570 | 1810 | 520 | 4.9 | 1.1
17 | C[C@H](Cn1cnc2c(N)ncnc21)OCP(=O)(O)O [TENOFOVIR ANHYDROUS] |  | 2320 | 1850 | 1940 | 0.5 | >3571.3 | 
18 | O=C1OCCc2c(COC(=O)C3CCCCC3)cccc21 |  | > 1840 | > 1840 | > 1840 | 26 | >70.8 | 
19 | O=C1/C(=C/c2cccc3c2CCOC3=O)Oc2cc(O)ccc21 |  | > 1810 | > 1810 | > 1810 | > 450 |  | 
20 | O=C(O)c1ccccc1C(=O)OCc1cccc2c1CCOC2=O | 2.3 | 72 | 130 | 56 | 84 | 1.6 | 1.8
21 | O=C(OCc1cccc2c1CCOC2=O)c1ccco1 |  | > 2350 | > 2350 | > 2350 | > 840 |  | 
22 | O=C(OCc1cccc2c1CCOC2=O)c1ccc([N+](=O)[O-])cc1 |  | > 2260 | > 2260 | > 2260 | > 560 |  | 
23 | COc1cccc(/C=C/C(=O)OCc2cccc3c2CCOC3=O)c1 | >1.9 | > 1620 | > 1620 | 840 | 45 | >36 | 
24 | N=C(N)c1cccc2c1CCOC2=O |  | 2240 | 2050 | 2840 | 380 | 5.4 | 
25 | NC(=O)c1cccc2c1CCOC2=O |  | > 3290 | > 3290 | > 3290 | 820 | >4 | 
26 | O=C(O)c1cccc2c1CCOC2=O | >1.5 | 3180 | > 4540 | 2950 | 390 | >11.6 | >1.4
